According to publication PMC2784364, “VX-166: a novel potent small molecule caspase inhibitor as a potential therapy for sepsis” (Critical Care, 2009):
Entries after “also recorded” stand apart in the source; their conditions may differ. Where two headings read alike, the source gives them in different places.

Tests used:
[1] = test system: human aorta endothelial cells (HAEC); assay: Apoptosis assay in human aorta endothelial cells, serum withdrawal, DNA fragmentation; format: cell-based; settings: Endothelial cell, Serum withdrawal and nutrient deprivation, 48 hours, n = 4, read-out: IC50, inhibition of apoptosis
Procedure: Human aorta endothelial cells (HAEC) were purchased from Cambrex Bio Science Wokingham Ltd., (Wokingham, UK) and cultured as recommended by the supplier. Apoptosis was induced in 5 × 10^4 cells/ml by addition of medium deprived of serum and growth factors. VX-166 was added at a range of concentrations as described above and the cells incubated for 48 hours at 37°C in an atmosphere of 5% CO2/95% humidity. Apoptosis was measured using a Cell Death Detection ELISA kit (Roche Diagnostics Ltd., Lewes, UK) following the manufacturer's instructions.

[2] = test system: IL-1β release from peripheral blood mononuclear cells; assay: IL-1β release from LPS-treated PBMC; format: cell-based
Procedure: (§1) Peripheral blood mononuclear cells (PBMC) from healthy donors were isolated by Ficoll-Paque gradient centrifugation from buffy coats obtained from the National Blood Transfusion Service (Bristol, UK). For IL-1β release, 5 × 10^5 cells/ml were then stimulated with 50 ng/ml lipopolysaccharide (LPS) from Escherichia coli (Sigma-Aldrich Ltd., Poole, UK) in the presence or absence of VX-166 and incubated for 18 hours. Secretion of IL-1β into the supernatant was determined by ELISA (R&D Systems, Abingdon, UK) following the manufacturer's instructions. For IL-18 release, 7.5 × 10^5 cells/ml were stimulated with 6.25 × 10^-4% (w/v) Staphylococcus aureus cell suspension (SAC; Sigma-Aldrich Ltd., Poole, UK) in the presence or absence of VX-166 and incubated overnight. The IL-18 content in the supernatants was quantified by ELISA (Caltag-MedSystems Ltd., Buckingham, UK) following the manufacturer's instructions. In both assays PBMC viability was assessed after the 18 hours incubation time using MTS assay (Promega UK Ltd., Southampton, UK) to ensure that the reduction in cytokine release was not caused by a cytotoxic effect of the compound.

[3] = test system: IL-18 release from peripheral blood mononuclear cells; assay: IL-18 release from SAC-treated PBMC; format: cell-based; settings: overnight
Procedure: as §1

thymocytes = assay: CLP rat, thymocyte apoptosis by flow cytometry; format: in vivo; settings: 20 hours, 25 mg/ml pump, n = 10
Procedure: CLP studies were performed in accordance with the National Institutes of Health guidelines for the use of experimental animals and were approved by the Institutional Animal Care and Use Committee of the Feinstein Institute for Medical Research. Adult male Sprague-Dawley rats (weighing 275 to 325 g, Charles River Laboratories, Wilmington, MA, USA) were fasted overnight then anaesthetised with isoflurane. The caecum was exposed via a 2 cm midline incision. It was ligated just distal to the ileocaecal valve, then punctured twice with an 18-gauge needle and gently squeezed to release a small amount of faecal material to ensure patency of the perforation sites before the abdominal incision was closed. Sham-operated rats underwent the same procedure with the exception that the caecum was neither ligated nor punctured. Animals received subcutaneous fluids (30 ml/kg saline) immediately after the procedure. No antibiotics were administered. In the 7 and 10 day survival studies animals were re-anaesthetised 20 hours after CLP, the perforated caecum was removed and the abdominal cavity washed twice with 40 ml of warm, sterilised saline. The abdominal cavity was closed, anaesthetics withdrawn and rats returned to their cages where they were allowed free access to food and water. In the 20 hour endpoint study the caecum was not removed. […]
Rat PBMC were isolated from heparinised blood by Ficoll Paque (GE Healthcare Bio-Sciences Corp., Piscataway, NJ, USA) density gradient centrifugation and washed three times with PBS (Invitrogen, Carlsbad, CA, USA). […] Cells were then washed twice in PBS, counted and reconstituted in Ca^2+-rich Annexin-V binding buffer (BD Biosciences, San Jose, CA, USA) at a concentration of 1 × 10^7 cells/ml. […] Cells were then analysed by flow cytometry with the FACS-Calibur (BD Biosciences, San Jose, CA, USA) and percentages of viable (Annexin-V^-/PI^-), early apoptotic (Annexin-V^+/PI^-), late apoptotic (Annexin-V^+/PI^+) and necrotic (Annexin-V^-/PI^+) cells were determined.

IL-1β = assay: CLP rat, plasma IL-1β by ELISA; format: in vivo; settings: 20 hours, 25 mg/ml pump, n = 10, P < 0.05
Procedure: CLP studies were performed in accordance with the National Institutes of Health guidelines for the use of experimental animals and were approved by the Institutional Animal Care and Use Committee of the Feinstein Institute for Medical Research. Adult male Sprague-Dawley rats (weighing 275 to 325 g, Charles River Laboratories, Wilmington, MA, USA) were fasted overnight then anaesthetised with isoflurane. The caecum was exposed via a 2 cm midline incision. It was ligated just distal to the ileocaecal valve, then punctured twice with an 18-gauge needle and gently squeezed to release a small amount of faecal material to ensure patency of the perforation sites before the abdominal incision was closed. Sham-operated rats underwent the same procedure with the exception that the caecum was neither ligated nor punctured. […]
Blood samples were centrifuged at 1500 g for 15 minutes at 4°C, the plasma was removed and stored at -80°C until analysis. Plasma IL-1β levels were determined by ELISA (R&D Systems Inc., Minneapolis, MN, USA) following the manufacturer's instructions. Plasma endotoxin levels were determined using a Limulus amebocyte lysate (LAL) kit (Associates of Cape Cod, Inc., East Falmouth, MA, USA) according to the manufacturer's instruction. […] The optical density was determined at 405 nm using a spectrophotometer. The levels of endotoxin were then calculated and expressed as EU/ml.

CCC(C(=O)NC(CC(=O)O)C(=O)COc1c(F)c(F)cc(F)c1F)n1cccc(NC(=O)OC)c1=O (stereo not drawn) [VX-166]
IC50 [1]: 310 ± 70 nM | IC50 ([2]; Homo sapiens, PBMC, 18 h, n = 4, read-out: IC50 ± SD, inhibition of IL-1β release): < 500 nM | IC50 ([2]; LPS-treated human PBMC, 18 hours, n = 4, read-out: IC50 ± SD, inhibition of IL-1β release): 260 ± 120 nM | IC50 ([3]; Homo sapiens, PBMC, n = 4, read-out: IC50 ± SD, inhibition of IL-18 release): < 500 nM | IC50 ([3]; SAC-treated human PBMC, n = 4, read-out: IC50 ± SD, inhibition of IL-18 release): 450 ± 170 nM | level of necrotic thymocytes between groups (thymocytes): remained unchanged | percentage of early apoptotic thymocytes vs vehicle CLP group (thymocytes): significantly inhibited thymic atrophy and lymphocyte apoptosis; also recorded: reduced the percentage of early apoptotic thymocytes | percentage of viable thymocytes vs vehicle CLP group (thymocytes): significantly increased the percentage of viable cells | plasma IL-1β level vs vehicle CLP (IL-1β): significant reduction
